Measurements published in paper PMC10319141, “Imidazoquinolines with improved pharmacokinetic properties induce a high IFNα to TNFα ratio in vitro and in vivo” (Frontiers in Immunology, 2023).

Experiment: Stability in whole blood, U937 and RPMI
Type: in vitro ADME, human
Details: 1 µM, 37°C, over 24 h; in words
Procedure: Human blood products used in the in vitro assays (for cell stimulation and stability) were obtained from the center for transfusion medicine in Tübingen, Germany (Zentrum für Klinische Transfusionmedizin Tübingen GmbH, (ethical approval number ZKT-FoPro202106-2305-01). Test compounds (1 µM) in either culture medium (RPMI-1640 medium containing 10% fetal bovine serum, 60 mg/l Penicillin G sodium salt and 100 mg/l Streptomycin sulfate (all Biowest)), human blood (diluted 1:1 with culture medium) or a suspension of 5x10^6 cells/ml U937 in culture medium were incubated at 37°C, 450 rpm on a shaking incubator. At the indicated time points 50 µL of blood, cell suspension or medium were collected and prepared for HPLC-MS/MS-Analysis as detailed below.
All samples were extracted with 3 or 6 volumes acetonitrile containing terbuthylazine as an internal standard (ACN) relative to either sample weight or volume. Liquid samples (plasma, culture medium, cell suspensions in stability experiments) were diluted in either 3 (culture medium, cell suspensions) or 6 (plasma) volumes ACN, pellet and blood samples were extracted by addition of ACN followed by sonication for 5 min. […]
Quantification of analytes was performed on an Agilent 1260/1290 Infinity system fitted with an Agilent C18 Poroshell 120 column (4.6 x 50 mm, 2.7 µm) coupled to a triple quadrupole Sciex API 4000 MS/MS detector. […]

| SMILES | stability in whole blood and cell based (U937) assays |
| --- | --- |
| CCCCc1nc2c(N)nc3ccccc3c2n1CCC1CCN(C(=O)CN(C)CC(=O)N(C)C2CC(C)OC(OC3C(C)C(OC4CC(C)(OC)C(O)C(C)O4)C(C)C(=O)OC(CC)C(C)(O)C(O)C(C)N(C)CC(C)CC3(C)O)C2O)CC1 (centres unmarked) [A1-mac] | stable |
| CCCCc1nc2c(N)nc3ccccc3c2n1CC1CCN(C(=O)CN(C)CC(=O)N(C)[C@H]2C[C@@H](C)O[C@@H](O[C@@H]3[C@@H](C)[C@H](O[C@H]4C[C@@](C)(OC)[C@@H](O)[C@H](C)O4)[C@@H](C)C(=O)O[C@H](CC)[C@@](C)(O)[C@H](O)[C@@H](C)N(C)C[C@H](C)C[C@@]3(C)O)[C@@H]2O)CC1 [A2-mac] | stable |
